Data reported in US9951014B2, “Mammalian and bacterial nitric oxide synthase inhibitors” (Northwestern University, priority 2014, dated 2018).

Assays:
bsNOS = bsNOS (Bacillus subtilis (strain 168), UniProt O34453); experiment: Imidazole displacement, spectral binding constant KS; details: KS (bsNOS), Table 5
rat nNOS = rat nNOS (Rattus norvegicus (Rat), UniProt P29476); experiment: Oxyhemoglobin NO capture assay with purified NOS; format: biochemical; details: Table 9; read-out: Ki Rat nNOS
Description: (§1) The oxyhemoglobin NO assays were performed with purified NOSs using a Biotek Gen5™ microplate reader as previously reported. […] For iNOS, calmodulin and CaCl2 were omitted because iNOS is calcium independent. […] The calculated standard deviations of the assays were less than 10% with all NOSs. […] The selectivity of antagonism of nNOS was determined by calculating the ratios of the Ki values with iNOS or eNOS to those with rat nNOS.

murine iNOS = murine iNOS (Mus musculus (Mouse), UniProt P29477); experiment: Oxyhemoglobin NO capture assay with purified NOS; format: biochemical; details: Table 9; for Ki: read-out: Ki iNOS; for i/n selectivity: ratio Ki iNOS / Ki rat nNOS
Description: as §1

bovine eNOS = bovine eNOS (Bos taurus (Bovine), UniProt P29473); experiment: Oxyhemoglobin NO capture assay with purified NOS; format: biochemical; details: Table 9; for Ki: read-out: Ki eNOS; for e/n selectivity: ratio Ki eNOS / Ki rat nNOS
Description: as §1

bsNOS, sequence (O34453 whole entry): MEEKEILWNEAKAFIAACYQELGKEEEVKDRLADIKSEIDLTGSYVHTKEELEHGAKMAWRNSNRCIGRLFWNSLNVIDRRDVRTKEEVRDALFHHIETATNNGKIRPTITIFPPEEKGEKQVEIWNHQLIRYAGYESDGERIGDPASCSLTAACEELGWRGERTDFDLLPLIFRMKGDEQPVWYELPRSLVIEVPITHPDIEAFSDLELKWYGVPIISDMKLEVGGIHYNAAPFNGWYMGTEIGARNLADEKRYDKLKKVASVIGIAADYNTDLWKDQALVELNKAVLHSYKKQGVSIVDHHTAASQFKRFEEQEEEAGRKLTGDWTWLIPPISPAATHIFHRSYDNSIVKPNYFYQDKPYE

| Structure (SMILES) | Kd (bsNOS) [µM] | Ki (rat nNOS) [µM] | Ki (murine iNOS) [µM] | i/n selectivity (murine iNOS) | Ki (bovine eNOS) [µM] | e/n selectivity (bovine eNOS) |
| --- | --- | --- | --- | --- | --- | --- |
| Cc1cc(N)nc(CCc2cc(C#N)cc(NCc3cccc(F)c3)c2)c1 [Compound 23, 3-(2-(6-Amino-4-methylpyridin-2-yl)ethyl)-5-((3-fluorobenzyl)amino)benzonitrile] | 9.6 ± 1.3 | – | – | – | – | – |
| Cc1cc(N)nc(CCc2cc(F)cc(NCCN(C)C)c2)c1 [Compound 23a, N^1-(3-(2-(6-Amino-4-methylpyridin-2-yl)ethyl)-5-fluorophenyl)-N^2,N^2-dimethylethane-1,2-diamine] | – | 0.07 | 3.31 | 47.3 | 9.58 | 136.9 |
| CCNCCN(C)c1cc(F)cc(CCc2cc(C)cc(N)n2)c1 [Compound 23b, N^1-(3-(2-(6-Amino-4-methylpyridin-2-yl)ethyl)-5-fluorophenyl)-N^2-ethyl-N^1-methylethane-1,2-diamine] | – | 0.032 | 6.38 | 199.4 | 17.9 | 558.4 |
| Cc1cc(N)nc(CCc2cc(F)cc(N(C)CCNC3CC3)c2)c1 [Compound 23c, N^1-(3-(2-(6-Amino-4-methylpyridin-2-yl)ethyl)-5-fluorophenyl)-N^2-cyclopropyl-N^1-methylethane-1,2-diamine] | – | 0.05 | 10.9 | 217.8 | 6.21 | 124.3 |
| CCN(CCNC)c1cc(F)cc(CCc2cc(C)cc(N)n2)c1 [Compound 23d, N^1-(3-(2-(6-Amino-4-methylpyridin-2-yl)ethyl)-5-fluorophenyl)-N^1-ethyl-N^2-methylethane-1,2-diamine] | – | 0.046 | 5.04 | 109.6 | 4.29 | 93.2 |
| CNCCN(c1cc(F)cc(CCc2cc(C)cc(N)n2)c1)C1CC1 [Compound 23e, N^1-(3-(2-(6-amino-4-methylpyridin-2-yl)ethyl)-5-fluorophenyl)-N^1-cyclopropyl-N^2-methylethane-1,2-diamine] | – | 0.056 | 8.33 | 148.7 | 7.89 | 140.9 |
| Cc1cc(N)nc(CCc2cc(F)cc(NCc3cccc(Cl)c3)c2)c1 [Compound 23f, 6-(3-((3-Chlorobenzyl)amino)-5-fluorophenethyl)-4-methylpyridin-2-amine] | – | 0.027 | 9.56 | 354.1 | 7.08 | 262.0 |
| Cc1cc(N)nc(CCc2cc(F)cc(NCc3cccnc3)c2)c1 [Compound 23g, 6-(3-Fluoro-5-((pyridin-3-ylmethyl)amino)phenethyl)-4-methylpyridin-2-amine] | – | 1.03 | 11 | 10.7 | 10.3 | 10.0 |
| Cc1cc(N)nc(CCc2cc(F)cc(N3CCNCC3)c2)c1 [Compound 23h, 6-(3-Fluoro-5-(piperazin-1-yl)phenethyl)-4-methylpyridin-2-amine] | – | 0.058 | 3.51 | 60.2 | 4.84 | 82.8 |
| Cc1cc(N)nc(CCc2cc(F)cc(NC3CCNCC3)c2)c1 [Compound 23i, 6-(3-Fluoro-5-(piperidin-4-ylamino)phenethyl)-4-methylpyridin-2-amine] | – | 0.121 | 13.5 | 110.9 | 4.89 | 40.2 |
| Cc1cc(N)nc(CCc2cc(F)cc(NCc3ccc(F)cc3)c2)c1 [Compound 24, 6-(3-Fluoro-5-((4-fluorobenzyl)amino)phenethyl)-4-methylpyridin-2-amine] | 29 ± 4 | – | – | – | – | – |
| Cc1cc(N)nc(CCc2cc(F)cc(NCc3cccc(F)c3)c2)c1 [Compound 25, 6-(3-Fluoro-5-((3-fluorobenzyl)amino)phenethyl)-4-methylpyridin-2-amine] | 19 ± 5 | – | – | – | – | – |
| CNCCN(C)Cc1ccc(-c2cc(C)cc(N)n2)cc1 [Compound 26, N1-(4-(6-amino-4-methylpyridin-2-yl)benzyl)-N1,N2-dimethylethane-1,2-diamine] | 6.3 ± 0.3 | – | – | – | – | – |
| Cc1cc(N)nc(-c2ccc(CNCCCc3cccc(Cl)c3)cc2)c1 [Compound 28, 6-(4-(((3-(3-Chlorophenyl)propyl)amino)methyl)phenyl)-4-methylpyridin-2-amine] | 3.2 ± 0.1 | – | – | – | – | – |
| Cc1cc(N)nc(-c2ccc(CNCc3cccc(F)c3)cc2)c1 [Compound 29, 6-(4-(((3-Fluorobenzyl)amino)methyl)phenyl)-4-methylpyridin-2-amine] | 1.5 ± 0.3 | – | – | – | – | – |
| CNCCN(C)c1cccc(Cc2cc(C)cc(N)n2)n1 [Compound 31] | 94 ± 22 | – | – | – | – | – |
| CNCCN(C)Cc1cccc(Cc2cc(C)cc(N)n2)c1 [Compound 32] | 1.6 ± 0.6 | – | – | – | – | – |
